According to patent US20130053337A1, “GUANIDINYLATED AMINOGLYCOSIDE-LIPID CONJUGATES” (UNIVERSITY OF MANITOBA, priority 2010, published 2013):

Key:
MRSA ATCC 33592 = test: MIC, broth macrodilution (CLSI); type: cell-based, methicillin-resistant Staphylococcus aureus; details: for MIC: MRSA ATCC33592; for fold lower MIC (MRSA) compared to analogs 6 and 7: guanidinylated vs polyamine analog
Method: (§1) All experiments were performed in duplicate.
(§2) Bacterial isolates studied included both reference strains obtained from the American Type Culture Collection (ATCC) as well as clinical strains obtained from the CAN-ICU study which was a national surveillance study assessing the prevalence of antimicrobial resistant pathogens in Canadian intensive care units (Zhanel et al., 2008). Isolates were kept frozen in skim milk at −80° C. until minimum inhibitory concentration (MIC) testing was carried out. Following two subcultures from frozen stock, the in vitro activities of peptides were determined by macrobroth dilution in accordance with the Clinical and Laboratory Standards Institute (CLSI) 2006 guidelines (Zhanel et al., 2008). Stock solutions of peptides were prepared and dilutions made as described by CLSI. Test tubes contained doubling antimicrobial dilutions of cation adjusted Mueller-Hinton broth and inoculated to achieve a final concentration of approximately 5×10^5 cfu/ml then incubated in ambient air for 24 hours prior to reading. Colony counts were performed periodically to confirm inocula. Quality control was regularly performed using ATCC QC organisms.

S. aureus ATCC 29213 = test: MIC, broth macrodilution (CLSI); type: cell-based, Staphylococcus aureus; details: S. aureus ATCC29213
Method: as §1, §2

[1] = test system: sheep red blood cell (erythrocytes); test: Hemolytic assay (in vitro toxicity); details: for hemolytic activity at 100 mg/L: sheep erythrocytes, percent hemolysis
Method: Antibacterial activity against Gram-positive and Gram-negative microorganisms was tested via broth macrodilution tests using CLSI methodology (Zhanel et al., 2008). Stock solutions of cationic lipids in water were brought to a concentration of 512 mg/L. Organisms were subcultured and isolated on blood agar, suspended in 3 mL of Mueller-Hinton broth at the turbidity of a […], and diluted to approximately 10^5 cfu/mL before introduction into tubes containing serially diluted lipopeptide antibiotic in Mueller-Hinton broth. Activity testing against S. pneumoniae used broth supplemented with laked horse blood to give 5% horse blood in experimental tubes. Turbidity of lipopeptide solution in broth required creation of control tubes lacking organisms serving as turbidity controls. All tubes were incubated overnight for 16-20 h at 37° C. […] All experiments were performed in duplicate. In-vitro toxicity was determined using a sheep red blood cell hemolytic assay as previously described (Dathe et al., 1996).
In vitro toxicity was determined using a sheep red blood cell (erythrocytes) hemolytic assay (Dathe et al., 1996). […] Erythrocytes were washed and resuspended in Tris buffered saline. The cell suspension was combined with varying concentrations (low to very high) of test and control antimicrobials (e.g., aminoglycosides and APTCs). The samples were centrifuged and the absorbance of the supernatants measured at 540 nm. Tris buffered saline and Triton X were used as negative and positive controls, respectively. The toxicity was assessed by percent hemolysis.

[2] = test system: E. coli (gentamicin-resistant) CAN-ICU 61714; test: MIC, broth macrodilution (CLSI); type: cell-based; details: E. coli CAN-ICU 61714
Method: as §1, §2

[3] = test system: P. aeruginosa (gentamicin-resistant) CAN-ICU 62308; test: MIC, broth macrodilution (CLSI); type: cell-based
Method: as §1, §2

[4] = test system: E. coli (amikacin MIC 32 mg/L) CAN-ICU 63074; test: MIC, broth macrodilution (CLSI); type: cell-based; details: E. coli CAN-ICU 63074
Method: as §1, §2

P. aeruginosa ATCC 27853 = test: MIC, broth macrodilution (CLSI); type: cell-based; details: P. aeruginosa ATCC27853
Method: as §1, §2

E. coli ATCC 25922 = test: MIC, broth macrodilution (CLSI); type: cell-based; details: E. coli ATCC25922
Method: as §1, §2

E. faecium ATCC 27270 = test: MIC, broth macrodilution (CLSI); type: cell-based, Enterococcus faecium; details: E. facium ATCC27270
Method: as §1, §2

MRSE CAN-ICU 61589 [5] = test: MIC, broth macrodilution (CLSI); type: cell-based, methicillin-resistant Staphylococcus epidermidis
Method: as §1, §2

E. faecalis ATCC 29212 = test: MIC, broth macrodilution (CLSI); type: cell-based, Enterococcus faecalis; details: E. faecalis ATCC29212
Method: as §1, §2

S. pneumoniae ATCC 49619 = test: MIC, broth macrodilution (CLSI), broth with 5% laked horse blood; type: cell-based, Streptococcus pneumoniae; details: S. pneumoniae ATCC49619
Method: as §1, §2

[6] = test system: S. epidermidis ATCC 14990; test: MIC, broth macrodilution (CLSI); type: cell-based, Staphylococcus epidermidis; details: S. epidermidis ATCC14990
Method: as §1, §2

MRSE CAN-ICU 61589 [7] = details: Zhanel et al., 2008; cited from earlier work
[8] = gentamicin-resistant (as well as neomycin B and kanamycin A-resistant) P. aeruginosa strain

Compound | MIC (MRSA ATCC 33592) [µg/mL] | MIC (S. aureus ATCC 29213) [µg/mL] | hemolytic activity at 100 mg/L [1] [%] | hemolytic activity compared to polyamine analogs 3 and 15 ([1]; in words) | MIC [2] [µg/mL] | MIC ([3]; P. aeruginosa CAN-ICU 62308) [µg/mL] | MIC [3, 8] [µg/mL] | MIC [4] [µg/mL] | MIC (P. aeruginosa ATCC 27853) [µg/mL] | MIC (E. coli ATCC 25922) [µg/mL] | MIC (E. faecium ATCC 27270) [µg/mL] | MIC (MRSE CAN-ICU 61589 [5]) [µg/mL] | MIC (E. faecalis ATCC 29212) [µg/mL] | MIC (S. pneumoniae ATCC 49619) [µg/mL] | MIC [6] [µg/mL] | fold lower MIC (MRSA) compared to analogs 6 and 7 (MRSA ATCC 33592) [fold] | MIC (strain description) (MRSE CAN-ICU 61589 [7]) [µg/mL]
CCCCCCCCCCCCCCCC(=O)NCC1OC(OC2C(O)C(NC(=N)N)CC(NC(=N)N)C2OC2OC(CNC(=N)N)C(O)C(O)C2NC(=N)N)C(O)C1OC1OC(CNC(=N)N)C(O)C(O)C1NC(=N)N.O=C(O)C(F)(F)F.O=C(O)C(F)(F)F.O=C(O)C(F)(F)F.O=C(O)C(F)(F)F.O=C(O)C(F)(F)F.O=C(O)C(F)(F)F (stereo not shown) [Compound 10, 1,3,2′,6′,2′″,6′″-Hexaammonium-guanidinyl-5″-deoxy-5″-N-(hexadecanoyl)-neomycin hexakis(trifluoroacetate)] | 4 | 4 | 13 | reduced hemolytic activity | 64 | 8 | 8 | 32 | 32 | 32 | 0.5 | 4 | 4 | 32 | 1 |  | 
CCCCCCCCCCCCCCCCCCCC(=O)NCC1OC(OC2C(O)C(NC(=N)N)CC(NC(=N)N)C2OC2OC(CNC(=N)N)C(O)C(O)C2NC(=N)N)C(O)C1OC1OC(CNC(=N)N)C(O)C(O)C1NC(=N)N.O=C(O)C(F)(F)F.O=C(O)C(F)(F)F.O=C(O)C(F)(F)F.O=C(O)C(F)(F)F.O=C(O)C(F)(F)F.O=C(O)C(F)(F)F (stereo not shown) [Compound 11] | 32 | 32 | 82 |  | 128 | 64 |  | 128 | 128 | 64 | 2 | 4 | 32 | 64 | 4 |  | 
CCCCC/C=C\C/C=C\CCCCCCCC(=O)NCC1OC(OC2C(O)C(NC(=N)N)CC(NC(=N)N)C2OC2OC(CNC(=N)N)C(O)C(O)C2NC(=N)N)C(O)C1OC1OC(CNC(=N)N)C(O)C(O)C1NC(=N)N.O=C(O)C(F)(F)F.O=C(O)C(F)(F)F.O=C(O)C(F)(F)F.O=C(O)C(F)(F)F.O=C(O)C(F)(F)F.O=C(O)C(F)(F)F (stereo not shown) [Compound 12, 1,3,2′,6′,2′″,6′″-Hexaammonium-guanidinyl-5″-deoxy-5″-N-(9Z,12Z,octadeca-di-ene-oyl)-neomycin hexakis(trifluoroacetate)] | 16 | 8 | 1 |  | 128 | 64 |  | 64 | 128 | 64 | 64 | 8 | 64 | 128 | 4 |  | 
N=C(N)NCC1OC(OC2C(CNC(=O)CCCc3ccc4ccc5cccc6ccc3c4c56)OC(OC3C(O)C(NC(=N)N)CC(NC(=N)N)C3OC3OC(CNC(=N)N)C(O)C(O)C3NC(=N)N)C2O)C(NC(=N)N)C(O)C1O.O=C(O)C(F)(F)F.O=C(O)C(F)(F)F.O=C(O)C(F)(F)F.O=C(O)C(F)(F)F.O=C(O)C(F)(F)F.O=C(O)C(F)(F)F (stereo not shown) [Compound 13, 1,3,2′,6′,2′″,6′″-Hexaammonium-guanidinyl-5″-deoxy-5″-N-((4-pyrenyl)-butanoyl)-neomycin hexakis(trifluoroacetate)] | 8 | 8 | 3 |  | 32 | 16 | 16 | 32 | 32 | 32 | 16 | 8 | 32 | 64 | 8 | 32 | 
CC(CCC(=O)NCC1OC(OC2C(O)C(NC(=N)N)CC(NC(=N)N)C2OC2OC(CNC(=N)N)C(O)C(O)C2NC(=N)N)C(O)C1OC1OC(CNC(=N)N)C(O)C(O)C1NC(=N)N)C1CCC2C3C(O)CC4CC(O)CCC4(C)C3CC(O)C12C.O=C(O)C(F)(F)F.O=C(O)C(F)(F)F.O=C(O)C(F)(F)F.O=C(O)C(F)(F)F.O=C(O)C(F)(F)F.O=C(O)C(F)(F)F (stereo not shown) [Compound 14, 1,3,2′,6′,2′″,6′″-Hexaammonium-guanidinyl-5″-deoxy-5″-N-(cholanoyl)-neomycin hexakis(trifluoroacetate)] | 16 | 16 | 2 |  | 64 | 32 |  | 32 | 128 | 64 | 16 | 8 | 32 | 64 | 4 | 8 | 
CCCCCCCCCCCCCCCC(=O)NCC1OC(OC2C(N)CC(N)C(OC3OC(CN)C(O)C(O)C3O)C2O)C(O)C(N)C1O.O=C(O)C(F)(F)F.O=C(O)C(F)(F)F.O=C(O)C(F)(F)F.O=C(O)C(F)(F)F (stereo not shown) [Compound 15, 1,3,6′,3″-Tetraammonium-6″-deoxy-6″-N-(hexadecanoyl)-kanamycin-tetrakis-(trifluoroacetate)] | 16 | 8 | 20 |  | 32 | 64 |  | 32 | 64 | 32 | 8 | 2 | 8 | 64 | 2 |  | 
CCCCCCCCCCCCCCCC(=O)NCC1OC(OC2C(NC(=N)N)CC(NC(=N)N)C(OC3OC(CNC(=N)N)C(O)C(O)C3O)C2O)C(O)C(NC(=N)N)C1O.O=C(O)C(F)(F)F.O=C(O)C(F)(F)F.O=C(O)C(F)(F)F.O=C(O)C(F)(F)F (stereo not shown) [Compound 16, 1,3,6′,3″-Tetraammonium-guanidinyl-6″-deoxy-6″-N-(hexadecanoyl)-kanamycin-tetrakis-(trifluoroacetate)] | 8 | 16 | 6.7 |  | 128 | 64 |  | 64 | 256 | 64 | 16 | 8 | 16 | 128 | 8 |  | 
Cc1nnc(SCC2=C(C(=O)O)N3C(=O)[C@@H](NC(=O)Cn4cnnn4)[C@H]3SC2)s1 [cefazolin] |  |  |  |  |  |  |  |  |  |  |  |  |  |  |  |  | > 32
